From the supplement of paper PMC13380429

What was measured:
Conditions in all cases: 72 h
[1] = system: Calu-3; test: relative viability EC50 (midpoint between 100% and the lowest measured viability); higher = less toxic
[2] = system: HepG2; test: as above
[3] = system: U2OS; test: as above
[4] = system: Vero E6; test: cell viability relative to DMSO; higher = less toxic
[5] = system: Calu-3; test: as above
[6] = system: HepG2; test: as above
[7] = system: Caco-2; test: as above
[8] = system: U2OS; test: as above
[9] = system: Vero E6; test: drug sensitivity score (DSS) for viability; higher = more toxic; extreme values may be limits of the assay
[10] = system: Calu-3; test: as above
[11] = system: HepG2; test: as above
[12] = system: Caco-2; test: as above
[13] = system: U2OS; test: as above
[14] = system: Vero E6; test: relative viability EC50 (midpoint between 100% and the lowest measured viability); higher = less toxic
[15] = system: Caco-2; test: as above

Structure (SMILES): Nc1ccc(F)cc1NC(=O)c1ccc(CNC(=O)/C=C/c2cccnc2)cc1 [chidamide]
- relative viability EC50 [1]: 0.365 µM
- relative viability EC50 [2]: 1.17 µM
- relative viability EC50 [3]: 1.56 µM
- cell viability ([4]; 1 nM): 95.6%
- cell viability ([4]; 10 nM): 99.7%
- cell viability ([4]; 100 nM): 95.4%
- cell viability ([4]; 1000 nM): 100%
- cell viability ([4]; 10000 nM): 67.5%
- cell viability ([5]; 1 nM): 113%
- cell viability ([5]; 10 nM): 101%
- cell viability ([5]; 100 nM): 89.4%
- cell viability ([5]; 1000 nM): 49.1%
- cell viability ([5]; 10000 nM): 35.1%
- cell viability ([6]; 1 nM): 97.6%
- cell viability ([6]; 10 nM): 105%
- cell viability ([6]; 100 nM): 91.4%
- cell viability ([6]; 1000 nM): 69.4%
- cell viability ([6]; 10000 nM): 28.1%
- cell viability ([7]; 1 nM): 95.3%
- cell viability ([7]; 10 nM): 104%
- cell viability ([7]; 100 nM): 97.1%
- cell viability ([7]; 1000 nM): 85.1%
- cell viability ([7]; 10000 nM): 55.9%
- cell viability ([8]; 1 nM): 101%
- cell viability ([8]; 10 nM): 103%
- cell viability ([8]; 100 nM): 104%
- cell viability ([8]; 1000 nM): 77.6%
- cell viability ([8]; 10000 nM): 9.8%
- drug sensitivity score [9]: 1.4
- drug sensitivity score [10]: 10.7
- drug sensitivity score [11]: 7.4
- drug sensitivity score [12]: 4.1
- drug sensitivity score [13]: 8.4

Structure (SMILES): O=C1CN(/N=C/c2ccc([N+](=O)[O-])o2)C(=O)N1 [nitrofurantoin]
- relative viability EC50 [14]: > 10 µM
- relative viability EC50 [1]: > 10 µM
- relative viability EC50 [15]: > 10 µM
- relative viability EC50 [3]: > 10 µM
- cell viability ([4]; 1 nM): 92.4%
- cell viability ([4]; 10 nM): 95.1%
- cell viability ([4]; 100 nM): 98.4%
- cell viability ([4]; 1000 nM): 96.7%
- cell viability ([4]; 10000 nM): 97.4%
- cell viability ([5]; 1 nM): 106%
- cell viability ([5]; 10 nM): 111%
- cell viability ([5]; 100 nM): 97.6%
- cell viability ([5]; 1000 nM): 94.3%
- cell viability ([5]; 10000 nM): 102%
- cell viability ([6]; 1 nM): 98.4%
- cell viability ([6]; 10 nM): 111%
- cell viability ([6]; 100 nM): 113%
- cell viability ([6]; 1000 nM): 109%
- cell viability ([6]; 10000 nM): 60%
- cell viability ([7]; 1 nM): 101%
- cell viability ([7]; 10 nM): 101%
- cell viability ([7]; 100 nM): 95.8%
- cell viability ([7]; 1000 nM): 89.9%
- cell viability ([7]; 10000 nM): 103%
- cell viability ([8]; 1 nM): 104%
- cell viability ([8]; 10 nM): 97.9%
- cell viability ([8]; 100 nM): 101%
- cell viability ([8]; 1000 nM): 101%
- cell viability ([8]; 10000 nM): 103%
- drug sensitivity score [9]: 0
- drug sensitivity score [10]: 0
- drug sensitivity score [11]: 1.5
- drug sensitivity score [12]: 0
- drug sensitivity score [13]: 0

Structure (SMILES): Clc1ccc(C(Cn2ccnc2)OCc2ccc(Sc3ccccc3)cc2)c(Cl)c1 (stereo not given) [fenticonazole]
- relative viability EC50 [14]: > 10 µM
- relative viability EC50 [1]: > 10 µM
- relative viability EC50 [3]: > 10 µM
- cell viability ([4]; 1 nM): 109%
- cell viability ([4]; 10 nM): 108%
- cell viability ([4]; 100 nM): 106%
- cell viability ([4]; 1000 nM): 107%
- cell viability ([4]; 10000 nM): 97.8%
- cell viability ([5]; 1 nM): 100%
- cell viability ([5]; 10 nM): 88.6%
- cell viability ([5]; 100 nM): 97%
- cell viability ([5]; 1000 nM): 101%
- cell viability ([5]; 10000 nM): 85.7%
- cell viability ([6]; 1 nM): 116%
- cell viability ([6]; 10 nM): 108%
- cell viability ([6]; 100 nM): 114%
- cell viability ([6]; 1000 nM): 110%
- cell viability ([6]; 10000 nM): 68.5%
- cell viability ([7]; 1 nM): 102%
- cell viability ([7]; 10 nM): 94.8%
- cell viability ([7]; 100 nM): 95%
- cell viability ([7]; 1000 nM): 91.3%
- cell viability ([7]; 10000 nM): 73.3%
- cell viability ([8]; 1 nM): 101%
- cell viability ([8]; 10 nM): 97.8%
- cell viability ([8]; 100 nM): 100%
- cell viability ([8]; 1000 nM): 99.1%
- cell viability ([8]; 10000 nM): 96%
- drug sensitivity score [9]: 0
- drug sensitivity score [10]: 0.1
- drug sensitivity score [11]: 1
- drug sensitivity score [12]: 1.7
- drug sensitivity score [13]: 0
